We go through 16 compounds from ChEMBL document CHEMBL4699440, “Comprehensive review on the anti-bacterial activity of 1,2,3-triazole hybrids” (Eur J Med Chem, 2019).

Molecules are shown by their SMILES. In brackets after ≈: the same amount, converted by molar mass.

What all share (assay type): functional
Experiment [1] relates to Staphylococcus aureus. Description: Antibacterial activity against Staphylococcus aureus MTCC 96 incubated for 24 hrs by macrodilution tube method.
Experiment [2] deals with Bacillus cereus. Description: Antibacterial activity against Bacillus cereus MTCC 430 incubated for 24 hrs by macrodilution tube method.
Experiment [3] relates to Pseudomonas aeruginosa. Description: Antibacterial activity against Pseudomonas aeruginosa by agar dilution method. In general terms: In agar dilution, organisms are placed on agar that contains the substance at set levels.
For experiment [4], the system named is Escherichia coli. Description: Antibacterial activity against Escherichia coli by agar dilution method.
Experiment [5] has as its system Bacillus cereus. Description: Antibacterial activity against Bacillus cereus by agar dilution method.
In experiment [6] the test system is Staphylococcus aureus. Description: Antibacterial activity against Staphylococcus aureus by agar dilution method.
For experiment [7], the system named is Enterococcus faecium. Description: Antibacterial activity against vancomycin-resistant Enterococcus faecium by CLSI-based broth dilution method. The note with it: time 24 hrs. For orientation: Dilution methods test growth across graded concentrations, often in twofold steps.
The test system of experiment [8] is Staphylococcus aureus. Description: Antibacterial activity against methicillin-resistant Staphylococcus aureus ATCC 25923 by CLSI-based broth dilution method.
Experiment [9] deals with Klebsiella pneumoniae. Description: Antibacterial activity against Klebsiella pneumoniae ATCC 27736 by CLSI-based broth dilution method.
Experiment [10] relates to Staphylococcus aureus. Description: Antibacterial activity against methicillin-sensitive Staphylococcus aureus by CLSI-based broth dilution method.
Experiment [11] concerns Pseudomonas aeruginosa. Description: Antibacterial activity against Pseudomonas aeruginosa ATCC 27853 by CLSI-based broth dilution method.
For experiment [12], the system named is Escherichia coli. Description: Antibacterial activity against ESBL-producing Escherichia coli ATCC 25925 by CLSI-based broth dilution method.

Take `CC1(C)CC(=O)C2=C(C1)Oc1cc3ccc(OCc4cn(-c5ccnc6cc(Cl)ccc56)nn4)cc3cc1C2c1cccc2ccccc12` (stereo not drawn): the MIC in experiment [1] and in experiment [2] was 16 µg/mL (≈ 24.1 µM) in each case.

Consider `COc1ccc(-c2nn(-c3ccccc3)cc2/C=N/NC(=O)c2cccc(-n3cc(-c4ccccc4)nn3)c2)cc1OC`, for which the MIC in experiment [3], in experiment [4], in experiment [5] and in experiment [6] was 2 µg/mL (≈ 3.51 µM) in each case.

`Clc1ccc(-n2cc(COc3ccc(-c4nc5cc(C6=NCCN6)ccc5[nH]4)cc3)nn2)cc1`: the MIC in experiment [7], in experiment [8], in [9], in experiment [10], in [11] and in [12] was 8 µg/mL (≈ 17 µM) in each case.

In the case of `CC(C)c1ccc(C2C3=C(CCCC3=O)Oc3cc4ccc(OCc5cn(-c6ccnc7cc(Cl)ccc67)nn5)cc4cc32)cc1` (stereo not drawn), the MIC in experiment [1] and in [2] was 16 µg/mL (≈ 25.5 µM) in each case.

For the compound `O=C1CCCC2=C1C(c1ccc(Br)cc1)c1cc3cc(OCc4cn(-c5ccnc6cc(Cl)ccc56)nn4)ccc3cc1O2` (stereo not drawn), the MIC in [1] and in experiment [2] was 16 µg/mL (≈ 24.1 µM) each time.

As to `COc1ccc(-n2cc(COc3ccc(-c4nc5cc(C(=N)NC(C)C)ccc5[nH]4)cc3)nn2)cc1`, the MIC in [7], in experiment [8], in experiment [9], in experiment [10], in experiment [11] and in [12] was 8 µg/mL (≈ 16.6 µM) each time.

`Cc1ccc(C2C3=C(CCCC3=O)Oc3cc4ccc(OCc5cn(-c6ccnc7cc(Cl)ccc67)nn5)cc4cc32)cc1` (stereo not drawn): the MIC in [1] and in experiment [2] was 16 µg/mL (≈ 26.7 µM) throughout.

`CC1(C)CC(=O)C2=C(C1)Oc1cc3ccc(OCc4cn(-c5ccnc6cc(Cl)ccc56)nn4)cc3cc1C2c1ccc(Cl)cc1` (stereo not drawn): the MIC in [1] and in experiment [2] was 16 µg/mL (≈ 24.7 µM) in each case.

In the case of `N=C(N)c1ccc2[nH]c(-c3ccc(OCc4cn(-c5ccccc5)nn4)cc3)nc2c1`, the MIC in experiment [7], in experiment [8], in experiment [9], in [10], in experiment [11] and in experiment [12] was 16 µg/mL (≈ 39.1 µM) each time.

Consider `CC(C)NC(=N)c1ccc2[nH]c(-c3ccc(OCc4cn(Cc5ccccc5)nn4)cc3)nc2c1`, for which the MIC in [7], in [8], in [9], in experiment [10], in experiment [11] and in experiment [12] was 8 µg/mL (≈ 17.2 µM) throughout.

Turning to `CC(C)NC(=N)c1ccc2[nH]c(-c3ccc(OCc4cn(-c5ccccc5)nn4)cc3)nc2c1`, the MIC in experiment [7], in experiment [8], in experiment [9], in experiment [10], in experiment [11] and in [12] was 8 µg/mL (≈ 17.7 µM) each time.

`CC1(C)CC(=O)C2=C(C1)Oc1cc3ccc(OCc4cn(-c5ccnc6cc(Cl)ccc56)nn4)cc3cc1C2c1ccc([N+](=O)[O-])cc1` (stereo not drawn): the MIC in [1] and in experiment [2] was 16 µg/mL (≈ 24.3 µM) throughout.

On to `c1ccc(-n2cc(COc3ccc(-c4nc5cc(C6=NCCN6)ccc5[nH]4)cc3)nn2)cc1`, for which the MIC in experiment [7], in [8], in experiment [9], in experiment [10], in [11] and in experiment [12] was 8 µg/mL (≈ 18.4 µM) throughout.

Regarding `CC1(C)CC(=O)C2=C(C1)Oc1cc3ccc(OCc4cn(-c5ccnc6cc(Cl)ccc56)nn4)cc3cc1C2c1ccc(Br)cc1` (stereo not drawn), the MIC in experiment [1] and in experiment [2] was 16 µg/mL (≈ 23.1 µM) in each case.

For `O=C1CCCC2=C1C(c1cccc3ccccc13)c1cc3cc(OCc4cn(-c5ccnc6cc(Cl)ccc56)nn4)ccc3cc1O2` (stereo not drawn), the MIC in experiment [1] and in experiment [2] was 16 µg/mL (≈ 25.2 µM) each time.

`COc1ccc(C2C3=C(CC(C)(C)CC3=O)Oc3cc4ccc(OCc5cn(-c6ccnc7cc(Cl)ccc67)nn5)cc4cc32)cc1OC` (stereo not drawn): the MIC in experiment [1] and in experiment [2] was 16 µg/mL (≈ 23.8 µM) in each case.
